In PMC4537050, “A long pentraxin-3-derived pentapeptide for the therapy of FGF8b-driven steroid hormone-regulated cancers” (Oncotarget, 2015):

Legend:
[1] = target: T1, FGF8b (Homo sapiens, UniProt P55075); experiment: SPR analysis of peptide binding to immobilized FGF8b; design: purchased PeproTech; conditions: for Kd / FGF8b binding (Kd): SPR, immobilized FGF8b, mean ± SEM; for FGF8b binding activity (in words): SPR on the FGF8b-coated sensor chip
T1 sequence (P55075 23-215 isoform P55075-3 limits assumed): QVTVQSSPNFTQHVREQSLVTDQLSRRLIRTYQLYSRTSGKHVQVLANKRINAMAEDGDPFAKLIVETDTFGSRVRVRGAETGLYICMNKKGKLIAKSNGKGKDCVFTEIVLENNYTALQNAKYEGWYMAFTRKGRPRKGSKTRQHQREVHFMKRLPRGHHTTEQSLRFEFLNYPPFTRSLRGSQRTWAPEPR
Procedure: A BIAcore X-100 apparatus (BIAcore Inc., Piscataway, NJ, USA) was used to set up the following experimental models. ARPCA and all the peptides mentioned in the present work were analyzed for their capacity to directly bind to immobilized FGF8b. To this purpose, FGF8b (20 μg/ml in 10 mM sodium acetate, pH 6.0) was allowed to react with a flow cell of a CM5 sensor chip that was previously activated with a mixture of 0.2 M N-ethyl-N′-(3-dimethylaminopropyl)-carbodiimide hydrochloride and 0.05 M N-hydroxysuccinimide (35 μl, flow rate 10 μl/min). After ligand immobilization, matrix neutralization was performed with 1.0 M ethanolamine (pH 8.5) (35 μl, flow rate 10 μl/min) and the activated/deactivated dextran was used as reference (control) system. Increasing concentrations of ARPCA (ranging between 8 μM and 2000 μM) were injected over the FGF8b-coated sensor chip and the response was recorded as a function of time tracking the SPR intensity change upon binding progression. Injection lasted for 4 min (flow rate 30 μl/min) to allow peptide association to immobilized FGF8b and was followed by 10 min of dissociation; each run was performed in HBS and the sensor chip was regenerated with 10 mM NaOH. […] Binding isotherm points were fitted with the Langmuir equation for monovalent binding. This allowed to evaluate the mass surface dissociation constant, Kd, and the scaling parameter that relates the SPR signal with the extent of binding, as the free parameters of the fitting. The errors on these parameters were assigned as a result of the fitting algorithm (95% confidence bounds). The best-fitting procedure was performed with the SigmaPlot 11.0 software package (Systat Software Inc.). Others FGFs were dissolved in 10mM sodium acetate at optimal pH, immobilized on CM5 sensorchips and tested for their capacity to bind ARPCA as described above.

[2] = tested on: S115 cells grafted onto the chick embryo CAM; experiment: CAM assay with DHT-treated S115 cell grafts; format: in vivo; conditions: 2.5 × 10^4 cells/embryo; ARPCA 80 or 140 pmoles/embryo, ARPVA 140 pmoles/embryo; day 14
Procedure: (§1) Alginate plugs containing vehicle, FGF8b (4.5 pmoles/embryo), VEGF-A (4.5 pmoles/embryo) or S115 cells (2.5×10^4/embryo) in the absence or presence of ARPCA (80 or 140 pmoles/embryo) or ARPVA (140 pmoles/embryo) were placed on the CAM of fertilized white leghorn chicken eggs at day 11 of incubation. At day 14, newly formed blood microvessels converging toward the implant were counted by two observers in a double-blind fashion at 5x magnification under a stereomicroscope (STEMI-SR, x2/0.12; Zeiss) as described.

[3] = tested on: HUVECs; experiment: HUVEC proliferation in response to FGF8b; format: cell-based, human; conditions: 30 ng/ml FGF8b, 48 h, concentrations as high as 300 μM
Procedure: (§2) HUVECs were seeded at 18000 cells/cm^2 in medium containing 2.5% FBS and stimulated with 30 ng/ml FGF8b in the absence or presence of increasing concentrations of ARPCA or ARPVA. S115 cells were seeded at 15000 cells/cm^2 in medium containing 4% hormone-deprived dextran-coated charcoal-stripped heat inactivated FBS, followed by 24 h serum starvation in 1:1 mixture of serum-free Ham's F12 and DMEM. Cells were stimulated for 48 h with 30 ng/ml FGF8b or 10 nM DHT in the presence or absence of different concentrations of ARPCA or ARPVA (as specified in the corresponding figures). Viable cell counts were obtained by the counting function of the MACSQuant® Analyzer (Miltenyi Biotec, Bergisch-Gladbach, Germany, EU).

[4] = tested on: S115 cells; experiment: S115 cell proliferation assay; format: cell-based, mouse; conditions: 30 ng/ml FGF8b or 10 nM DHT, 48 h, viable cell counting
Procedure: as §2

[5] = tested on: chick embryo chorioallantoic membrane (CAM); experiment: Chick embryo CAM assay with growth factor alginate implants; format: in vivo; conditions: 4.5 pmoles FGF8b/plug; ARPCA 80 or 140 pmoles, ARPVA 140 pmoles; vessels counted at day 14
Procedure: as §1

Row | Substance | Kd [1] [mM] | FGF8b binding activity (in words) [1] | other results
1 | Ac-APCRA-NH2 [Ac-APCRA-NH2] | > 3 | – | –
2 | Ac-ARACA-NH2 [Ac-ARACA-NH2] | > 3 | activity was lost | –
3 | Ac-ARGCA-NH2 [Ac-ARGCA-NH2] | > 3 | activity was lost | –
4 | Ac-ARPCG-NH2 [Ac-ARPCG-NH2] | 1.9 ± 0.2 | dramatically reduced | –
5 | Ac-ARPMA-NH2 [Ac-ARPMA-NH2] | > 3 | activity was lost | –
6 | Ac-ARPSA-NH2 [Ac-ARPSA-NH2] | – | activity was lost | FGF8b binding (Kd) [1]: nb
7 | Ac-ARPVA-NH2 [Cys4-replaced ARPCA pentapeptide mutant used as a negative control, reference compound] | – | activity was lost | FGF8b binding (Kd) [1]: nb; neovascular response elicited by DHT-pretreated S115 cells on the CAM [2]: no effect; effect on HUVEC proliferation in response to FGF8b (in words) [3]: no significant effect; mitogenic response of S115 cells to FGF8b or DHT [4]: ineffective; angiogenic response elicited by FGF8b in the CAM [5]: No inhibitory effect
8 | Ac-GRPCG-NH2 [Ac-GRPCG-NH2] | > 3 | dramatically reduced | –
9 | H-ARPCA-NH2 [H-ARPCA-NH2] | 2.9 ± 0.55 | dramatically reduced | –
